According to ChEMBL document CHEMBL4507294, “Data for DCP probe MSD-CYP11B2” (2021):

Tests used:
[1] = target: Histamine H1 receptor (Homo sapiens) (UniProt P35367); conditions: Compound concentration 10.0 uM
[2] = target: Serine/threonine-protein kinase PAK 5 (Homo sapiens) (UniProt Q9P286); conditions: Compound concentration 1000.0 nM
[3] = target: Cyclin-dependent kinase 5 (Homo sapiens) (UniProt Q00535); conditions: Compound concentration 1000.0 nM
[4] = target: Ephrin type-A receptor 1 (Homo sapiens) (UniProt P21709); conditions: Compound concentration 1000.0 nM
[5] = tested on: eIF-2-alpha kinase GCN2 (Homo sapiens), Q9P2K8 [S808G]; conditions: Compound concentration 1000.0 nM
[6] = target: Myosin light chain kinase (Homo sapiens) (UniProt Q32MK0); conditions: Compound concentration 1000.0 nM
[7] = target: Myosin light chain kinase family member 4 (Homo sapiens) (UniProt Q86YV6); conditions: Compound concentration 1000.0 nM
[8] = target: Macrophage colony-stimulating factor 1 receptor (Homo sapiens) (UniProt P07333); conditions: Compound concentration 1000.0 nM
Chain of Macrophage colony-stimulating factor 1 receptor (Homo sapiens) (P07333 whole entry): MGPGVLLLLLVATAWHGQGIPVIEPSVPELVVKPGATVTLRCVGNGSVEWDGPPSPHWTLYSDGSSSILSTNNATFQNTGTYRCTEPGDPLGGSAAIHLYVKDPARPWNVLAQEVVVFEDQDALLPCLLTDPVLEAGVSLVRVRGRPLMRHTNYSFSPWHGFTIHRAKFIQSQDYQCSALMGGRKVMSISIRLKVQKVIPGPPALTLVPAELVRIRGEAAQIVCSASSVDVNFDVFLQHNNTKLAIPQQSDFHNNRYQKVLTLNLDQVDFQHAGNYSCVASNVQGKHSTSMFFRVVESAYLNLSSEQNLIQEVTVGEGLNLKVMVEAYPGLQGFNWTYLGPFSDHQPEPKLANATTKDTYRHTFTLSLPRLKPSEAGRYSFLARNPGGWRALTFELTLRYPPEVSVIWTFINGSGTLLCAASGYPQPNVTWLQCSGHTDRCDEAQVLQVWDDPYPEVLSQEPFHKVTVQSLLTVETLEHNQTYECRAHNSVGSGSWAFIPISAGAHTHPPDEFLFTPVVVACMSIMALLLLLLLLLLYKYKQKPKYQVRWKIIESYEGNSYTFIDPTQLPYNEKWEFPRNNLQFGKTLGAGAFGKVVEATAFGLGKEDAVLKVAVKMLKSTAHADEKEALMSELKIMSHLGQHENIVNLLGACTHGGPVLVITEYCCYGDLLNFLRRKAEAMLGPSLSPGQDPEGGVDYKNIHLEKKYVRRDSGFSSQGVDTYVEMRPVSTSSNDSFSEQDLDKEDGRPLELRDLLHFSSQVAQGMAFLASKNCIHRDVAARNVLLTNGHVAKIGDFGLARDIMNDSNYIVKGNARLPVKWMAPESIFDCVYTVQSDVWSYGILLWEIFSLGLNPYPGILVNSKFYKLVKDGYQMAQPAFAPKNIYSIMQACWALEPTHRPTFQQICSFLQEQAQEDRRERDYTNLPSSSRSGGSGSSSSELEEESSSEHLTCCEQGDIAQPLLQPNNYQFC

[9] = target: Tyrosine-protein kinase ABL2 (Homo sapiens) (UniProt P42684); conditions: Compound concentration 1000.0 nM
[10] = target: Serine/threonine-protein kinase 36 (Homo sapiens) (UniProt Q9NRP7); conditions: Compound concentration 1000.0 nM
[11] = target: Serine/threonine-protein kinase LATS2 (Homo sapiens) (UniProt Q9NRM7); conditions: Compound concentration 1000.0 nM
[12] = target: Macrophage colony-stimulating factor 1 receptor (Homo sapiens) (UniProt P07333); conditions: Compound concentration 1000.0 nM; remark: listed apart in the source
[13] = target: Serine/threonine-protein kinase WNK1 (Homo sapiens) (UniProt Q9H4A3); conditions: Compound concentration 1000.0 nM
[14] = target: Beta-2 adrenergic receptor (Homo sapiens) (UniProt P07550); conditions: Compound concentration 10.0 uM
[15] = target: Aurora kinase B (Homo sapiens) (UniProt Q96GD4); conditions: Compound concentration 1000.0 nM
[16] = target: Serine/threonine-protein kinase Nek3 (Homo sapiens) (UniProt P51956); conditions: Compound concentration 1000.0 nM
[17] = target: Mitogen-activated protein kinase kinase kinase kinase 3 (Homo sapiens) (UniProt Q8IVH8); conditions: Compound concentration 1000.0 nM
[18] = tested on: Receptor-type tyrosine-protein kinase FLT3 (Homo sapiens), P36888 [UNDEFINED MUTATION]; conditions: Compound concentration 1000.0 nM
Chain of Receptor-type tyrosine-protein kinase FLT3 (Homo sapiens), P36888 [UNDEFINED MUTATION] (P36888 whole entry, looked up, stated change not applied): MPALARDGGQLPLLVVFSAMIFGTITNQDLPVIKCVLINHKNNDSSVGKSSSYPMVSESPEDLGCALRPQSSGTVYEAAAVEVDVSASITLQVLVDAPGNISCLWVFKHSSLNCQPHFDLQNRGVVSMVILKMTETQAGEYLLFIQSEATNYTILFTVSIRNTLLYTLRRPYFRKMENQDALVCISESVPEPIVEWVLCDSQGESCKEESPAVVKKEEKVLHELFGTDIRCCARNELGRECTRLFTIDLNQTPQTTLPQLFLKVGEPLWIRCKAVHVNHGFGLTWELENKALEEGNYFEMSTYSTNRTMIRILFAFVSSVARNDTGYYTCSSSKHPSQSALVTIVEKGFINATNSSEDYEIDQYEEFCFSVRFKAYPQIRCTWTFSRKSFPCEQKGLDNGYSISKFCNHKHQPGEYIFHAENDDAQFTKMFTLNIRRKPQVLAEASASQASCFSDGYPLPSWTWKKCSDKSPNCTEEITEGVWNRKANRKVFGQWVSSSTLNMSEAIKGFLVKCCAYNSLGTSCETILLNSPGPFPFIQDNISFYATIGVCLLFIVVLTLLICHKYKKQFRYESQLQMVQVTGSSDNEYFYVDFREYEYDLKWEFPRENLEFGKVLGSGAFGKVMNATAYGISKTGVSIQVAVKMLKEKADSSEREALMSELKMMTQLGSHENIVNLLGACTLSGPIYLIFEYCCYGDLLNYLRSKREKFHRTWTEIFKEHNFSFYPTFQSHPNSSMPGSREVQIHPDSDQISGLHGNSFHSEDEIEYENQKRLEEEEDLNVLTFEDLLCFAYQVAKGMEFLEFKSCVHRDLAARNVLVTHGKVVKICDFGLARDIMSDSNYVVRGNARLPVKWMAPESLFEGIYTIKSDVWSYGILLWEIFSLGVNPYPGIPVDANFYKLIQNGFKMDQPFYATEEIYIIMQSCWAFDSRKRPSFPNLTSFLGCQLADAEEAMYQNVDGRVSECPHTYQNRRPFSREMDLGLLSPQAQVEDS

[19] = tested on: Epidermal growth factor receptor (Homo sapiens), P00533 [L858R,T790M]; conditions: Compound concentration 1000.0 nM
[20] = target: Protein kinase C delta type (Homo sapiens) (UniProt Q05655); conditions: Compound concentration 1000.0 nM
Chain of Protein kinase C delta type (Homo sapiens) (Q05655 whole entry, looked up, canonical isoform): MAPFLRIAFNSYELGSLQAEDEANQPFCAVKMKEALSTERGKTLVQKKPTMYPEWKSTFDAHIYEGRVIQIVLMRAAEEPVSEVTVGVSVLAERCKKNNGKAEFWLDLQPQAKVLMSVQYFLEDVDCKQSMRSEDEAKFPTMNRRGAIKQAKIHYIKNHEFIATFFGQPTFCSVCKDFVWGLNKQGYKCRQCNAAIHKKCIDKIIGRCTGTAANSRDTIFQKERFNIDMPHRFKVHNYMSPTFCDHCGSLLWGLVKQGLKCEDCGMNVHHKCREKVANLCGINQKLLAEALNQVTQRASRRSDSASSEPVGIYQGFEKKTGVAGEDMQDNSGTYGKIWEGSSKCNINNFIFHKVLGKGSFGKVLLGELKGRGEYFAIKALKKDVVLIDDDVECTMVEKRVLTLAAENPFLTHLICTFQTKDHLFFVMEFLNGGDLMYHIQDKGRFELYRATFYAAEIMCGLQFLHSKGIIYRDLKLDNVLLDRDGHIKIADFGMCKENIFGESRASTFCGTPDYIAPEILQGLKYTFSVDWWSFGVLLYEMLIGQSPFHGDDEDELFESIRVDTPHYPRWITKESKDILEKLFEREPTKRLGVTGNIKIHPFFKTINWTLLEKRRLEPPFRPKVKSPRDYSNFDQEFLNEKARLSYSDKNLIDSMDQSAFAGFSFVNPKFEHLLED

[21] = target: Casein kinase I isoform gamma-2 (Homo sapiens) (UniProt P78368); conditions: Compound concentration 1000.0 nM
[22] = tested on: Phosphatidylinositol 4,5-bisphosphate 3-kinase catalytic subunit alpha isoform (Homo sapiens), P42336 [E545K]; conditions: Compound concentration 1000.0 nM
[23] = target: Phosphatidylinositol 5-phosphate 4-kinase type-2 beta (Homo sapiens) (UniProt P78356); conditions: Compound concentration 1000.0 nM
[24] = target: Death-associated protein kinase 1 (Homo sapiens) (UniProt P53355); conditions: Compound concentration 1000.0 nM
[25] = target: Serine/threonine-protein kinase DCLK3 (Homo sapiens) (UniProt Q9C098); conditions: Compound concentration 1000.0 nM
[26] = target: Mitogen-activated protein kinase 1 (Homo sapiens) (UniProt P28482); conditions: Compound concentration 1000.0 nM
[27] = target: Peripheral plasma membrane protein CASK (Homo sapiens) (UniProt O14936); conditions: Compound concentration 1000.0 nM
[28] = target: Mitogen-activated protein kinase 14 (Homo sapiens) (UniProt Q16539); conditions: Compound concentration 1000.0 nM
[29] = target: NUAK family SNF1-like kinase 2 (Homo sapiens) (UniProt Q9H093); conditions: Compound concentration 1000.0 nM
[30] = target: Cyclin-dependent kinase 19 (Homo sapiens) (UniProt Q9BWU1); conditions: Compound concentration 1000.0 nM
[31] = target: Receptor-interacting serine/threonine-protein kinase 2 (Homo sapiens) (UniProt O43353); conditions: Compound concentration 1000.0 nM
Chain of Receptor-interacting serine/threonine-protein kinase 2 (Homo sapiens) (O43353 whole entry): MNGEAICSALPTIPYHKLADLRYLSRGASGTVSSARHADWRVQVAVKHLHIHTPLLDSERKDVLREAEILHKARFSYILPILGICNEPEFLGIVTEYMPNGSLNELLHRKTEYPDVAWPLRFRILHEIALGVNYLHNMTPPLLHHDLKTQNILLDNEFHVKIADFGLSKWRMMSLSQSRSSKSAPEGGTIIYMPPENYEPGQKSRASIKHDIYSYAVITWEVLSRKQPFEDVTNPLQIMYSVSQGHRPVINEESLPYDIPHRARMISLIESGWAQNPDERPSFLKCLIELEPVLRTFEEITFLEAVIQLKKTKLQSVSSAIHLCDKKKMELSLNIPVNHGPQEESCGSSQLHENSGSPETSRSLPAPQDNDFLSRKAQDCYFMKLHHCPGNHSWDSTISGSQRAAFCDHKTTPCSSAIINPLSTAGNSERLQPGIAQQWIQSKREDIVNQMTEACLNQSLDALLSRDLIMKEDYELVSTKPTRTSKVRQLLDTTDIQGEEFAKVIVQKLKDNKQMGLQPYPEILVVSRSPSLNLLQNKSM

[32] = target: Serine/threonine-protein kinase DCLK2 (Homo sapiens) (UniProt Q8N568); conditions: Compound concentration 1000.0 nM
[33] = target: RAF proto-oncogene serine/threonine-protein kinase (Homo sapiens) (UniProt P04049); conditions: Compound concentration 1000.0 nM
[34] = target: G protein-coupled receptor kinase 3 (Homo sapiens) (UniProt P35626); conditions: Compound concentration 1000.0 nM
[35] = target: Sodium-dependent noradrenaline transporter (Homo sapiens) (UniProt P23975); conditions: Compound concentration 10.0 uM
[36] = target: Serine/threonine-protein kinase tousled-like 1 (Homo sapiens) (UniProt Q9UKI8); conditions: Compound concentration 1000.0 nM
[37] = tested on: Receptor-type tyrosine-protein kinase FLT3 (Homo sapiens), P36888 [UNDEFINED MUTATION]; conditions: Compound concentration 1000.0 nM; remark: listed apart in the source
[38] = target: Tyrosine-protein kinase Blk (Homo sapiens) (UniProt P51451); conditions: Compound concentration 1000.0 nM
[39] = target: Receptor-interacting serine/threonine-protein kinase 4 (Homo sapiens) (UniProt P57078); conditions: Compound concentration 1000.0 nM
[40] = target: Rho-associated protein kinase 1 (Homo sapiens) (UniProt Q13464); conditions: Compound concentration 1000.0 nM
[41] = tested on: Phosphatidylinositol 4,5-bisphosphate 3-kinase catalytic subunit alpha isoform (Homo sapiens), P42336 [C420R]; conditions: Compound concentration 1000.0 nM
[42] = target: Inhibitor of nuclear factor kappa-B kinase subunit epsilon (Homo sapiens) (UniProt Q14164); conditions: Compound concentration 1000.0 nM
Chain of Inhibitor of nuclear factor kappa-B kinase subunit epsilon (Homo sapiens) (Q14164 whole entry): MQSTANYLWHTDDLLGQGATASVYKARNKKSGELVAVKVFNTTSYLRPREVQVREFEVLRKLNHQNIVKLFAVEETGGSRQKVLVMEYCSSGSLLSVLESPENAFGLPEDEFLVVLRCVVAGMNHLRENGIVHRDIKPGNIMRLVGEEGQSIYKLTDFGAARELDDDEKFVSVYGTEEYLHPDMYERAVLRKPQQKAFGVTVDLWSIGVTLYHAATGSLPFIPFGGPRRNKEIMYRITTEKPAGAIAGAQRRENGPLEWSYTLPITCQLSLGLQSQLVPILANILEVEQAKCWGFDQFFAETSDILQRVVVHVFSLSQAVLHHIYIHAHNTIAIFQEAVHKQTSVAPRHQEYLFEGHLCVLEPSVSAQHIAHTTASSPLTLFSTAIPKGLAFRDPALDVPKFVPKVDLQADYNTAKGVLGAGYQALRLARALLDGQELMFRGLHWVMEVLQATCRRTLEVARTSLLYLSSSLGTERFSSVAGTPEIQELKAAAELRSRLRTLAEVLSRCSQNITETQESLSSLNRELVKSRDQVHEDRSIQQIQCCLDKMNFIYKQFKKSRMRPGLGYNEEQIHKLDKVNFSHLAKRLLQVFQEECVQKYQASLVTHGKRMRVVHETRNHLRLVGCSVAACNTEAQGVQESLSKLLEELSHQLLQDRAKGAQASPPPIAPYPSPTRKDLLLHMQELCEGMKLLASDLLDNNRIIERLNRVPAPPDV

[43] = target: Serine/threonine-protein kinase Nek10 (Homo sapiens) (UniProt Q6ZWH5); conditions: Compound concentration 1000.0 nM
[44] = target: Mitogen-activated protein kinase kinase kinase 14 (Homo sapiens) (UniProt Q99558); conditions: Compound concentration 1000.0 nM
Chain of Mitogen-activated protein kinase kinase kinase 14 (Homo sapiens) (Q99558 whole entry, looked up, canonical isoform): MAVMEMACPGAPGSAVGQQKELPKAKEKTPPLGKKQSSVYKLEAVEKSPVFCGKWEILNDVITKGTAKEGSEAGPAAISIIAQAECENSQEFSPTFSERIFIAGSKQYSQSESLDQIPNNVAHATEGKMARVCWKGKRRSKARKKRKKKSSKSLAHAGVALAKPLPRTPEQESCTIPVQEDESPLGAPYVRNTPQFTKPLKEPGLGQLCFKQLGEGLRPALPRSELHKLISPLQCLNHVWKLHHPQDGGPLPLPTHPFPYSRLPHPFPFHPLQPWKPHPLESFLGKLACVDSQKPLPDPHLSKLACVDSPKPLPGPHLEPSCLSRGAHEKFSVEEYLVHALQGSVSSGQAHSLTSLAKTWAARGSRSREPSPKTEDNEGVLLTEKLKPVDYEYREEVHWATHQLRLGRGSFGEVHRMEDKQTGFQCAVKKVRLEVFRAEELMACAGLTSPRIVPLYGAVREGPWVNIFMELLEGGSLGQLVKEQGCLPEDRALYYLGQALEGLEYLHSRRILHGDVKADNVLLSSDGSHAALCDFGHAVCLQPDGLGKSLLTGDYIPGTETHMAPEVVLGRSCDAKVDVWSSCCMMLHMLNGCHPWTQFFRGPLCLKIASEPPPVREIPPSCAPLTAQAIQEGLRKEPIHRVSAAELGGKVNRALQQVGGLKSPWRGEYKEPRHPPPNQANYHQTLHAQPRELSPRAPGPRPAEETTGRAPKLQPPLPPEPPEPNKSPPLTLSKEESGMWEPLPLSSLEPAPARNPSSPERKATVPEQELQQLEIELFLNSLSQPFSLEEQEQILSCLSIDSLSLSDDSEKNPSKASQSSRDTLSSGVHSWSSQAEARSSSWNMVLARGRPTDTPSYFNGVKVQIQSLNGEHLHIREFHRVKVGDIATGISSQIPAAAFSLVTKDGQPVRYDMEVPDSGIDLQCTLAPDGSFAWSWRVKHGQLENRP

[45] = target: Casein kinase I isoform alpha (Homo sapiens) (UniProt P48729); conditions: Compound concentration 1000.0 nM

CC(C)(O)c1cncc(-c2nc3ccc(F)cc3n2C2CC2)c1 [MSD-CYP11B2]
inactive: inhibition [1] 9.54% | residual activity [2] 100% | residual activity [3] 100% | residual activity [4] 100% | residual activity [5] 100% | residual activity [6] 87% | residual activity [7] 100% | residual activity [8] 100% | residual activity [9] 100% | residual activity [10] 93% | residual activity [11] 100% | residual activity [12] 99% | residual activity [13] 100% | inhibition [14] 2.65% | residual activity [15] 100% | residual activity [16] 100% | residual activity [17] 100% | residual activity [18] 100% | residual activity [19] 92% | residual activity [20] 100% | residual activity [21] 100% | residual activity [22] 95% | residual activity [23] 99% | residual activity [24] 100% | residual activity [25] 100% | residual activity [26] 100% | residual activity [27] 89% | residual activity [28] 100% | residual activity [29] 100% | residual activity [30] 94% | residual activity [31] 100% | residual activity [32] 100% | residual activity [33] 83% | residual activity [34] 79% | inhibition [35] 2.3% | residual activity [36] 100% | residual activity [37] 83% | residual activity [38] 98% | residual activity [39] 100% | residual activity [40] 99% | residual activity [41] 96% | residual activity [42] 100% | residual activity [43] 100% | residual activity [44] 100% | residual activity [45] 84%

FC(F)(F)c1ccc2c(c1)nc(-c1cccnc1)n2C1CC1 [MSD-CYP11B2-Negative-control]
inactive: inhibition [1] 9.49% | residual activity [2] 100% | residual activity [3] 100% | residual activity [4] 100% | residual activity [5] 93% | residual activity [6] 100% | residual activity [7] 100% | residual activity [8] 89% | residual activity [9] 100% | residual activity [10] 84% | residual activity [11] 100% | residual activity [12] 100% | residual activity [13] 100% | inhibition [14] 1.56% | residual activity [15] 100% | residual activity [16] 88% | residual activity [17] 100% | residual activity [18] 100% | residual activity [19] 100% | residual activity [20] 100% | residual activity [21] 100% | residual activity [22] 100% | residual activity [23] 82% | residual activity [24] 100% | residual activity [25] 100% | residual activity [26] 100% | residual activity [27] 100% | residual activity [28] 99% | residual activity [29] 100% | residual activity [30] 100% | residual activity [31] 100% | residual activity [32] 100% | residual activity [33] 76% | residual activity [34] 76% | inhibition [35] 17.2% | residual activity [36] 100% | residual activity [37] 92% | residual activity [38] 96% | residual activity [39] 95% | residual activity [40] 100% | residual activity [41] 92% | residual activity [42] 100% | residual activity [43] 100% | residual activity [44] 100% | residual activity [45] 90%
